According to patent US11292801B2, “Calpain modulators and therapeutic uses thereof” (Blade Therapeutics, Inc., priority 2016, dated 2022):

What was measured:
Human Calpain 2/NS1 = target: T1, Human Calpain 2/NS1 (Homo sapiens, UniProt P17655); experiment: Biochemical inhibition of calpain 2, continuous fluorescence (FRET substrate) assay; details: mean, read-out: Human Calpain 2/NS1 IC50 (nM)_MEAN
T1 sequence (P17655 1-700): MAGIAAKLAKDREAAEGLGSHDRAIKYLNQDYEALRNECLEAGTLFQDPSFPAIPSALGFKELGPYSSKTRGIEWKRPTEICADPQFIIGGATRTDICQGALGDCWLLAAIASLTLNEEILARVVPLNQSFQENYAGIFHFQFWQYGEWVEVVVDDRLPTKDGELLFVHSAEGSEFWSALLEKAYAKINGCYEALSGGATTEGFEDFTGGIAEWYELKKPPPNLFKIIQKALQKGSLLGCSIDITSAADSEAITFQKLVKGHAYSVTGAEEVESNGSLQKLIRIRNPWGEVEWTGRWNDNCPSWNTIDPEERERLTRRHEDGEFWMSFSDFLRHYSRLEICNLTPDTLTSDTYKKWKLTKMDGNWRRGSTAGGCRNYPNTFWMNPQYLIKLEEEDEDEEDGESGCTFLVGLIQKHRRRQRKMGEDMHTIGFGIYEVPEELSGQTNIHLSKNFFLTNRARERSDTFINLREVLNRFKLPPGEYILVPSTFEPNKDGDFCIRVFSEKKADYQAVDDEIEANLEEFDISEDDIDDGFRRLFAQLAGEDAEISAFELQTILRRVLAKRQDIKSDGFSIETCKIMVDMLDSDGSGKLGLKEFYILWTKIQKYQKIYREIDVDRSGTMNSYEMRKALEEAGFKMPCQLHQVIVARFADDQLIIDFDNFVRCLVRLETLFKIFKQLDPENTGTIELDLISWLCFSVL
T1 sequence (P04632 1-268 partner): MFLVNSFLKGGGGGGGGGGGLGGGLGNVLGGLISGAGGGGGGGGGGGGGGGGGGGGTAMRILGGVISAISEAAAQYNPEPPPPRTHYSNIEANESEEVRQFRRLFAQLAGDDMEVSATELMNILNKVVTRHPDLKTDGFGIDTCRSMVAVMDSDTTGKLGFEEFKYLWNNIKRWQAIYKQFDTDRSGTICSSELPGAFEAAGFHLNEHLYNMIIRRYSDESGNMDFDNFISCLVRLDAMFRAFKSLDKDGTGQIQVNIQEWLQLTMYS
In short: (§1)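 Continuous FRET assay with 5-FAM/QXL520 peptide substrate in 50 mM Tris pH ~7.5, 100 mM NaCl, 1 mM DTT. Enzyme preincubated with inhibitor at 25C; reaction started with substrate plus CaCl2, read at 490/520 nm for 10 min. Rates from slopes over 1-5 min, IC50 from 4-parameter logistic fit.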

Human Calpain 1/NS1 = target: T2, Human Calpain 1/NS1 (Homo sapiens, UniProt P07384); experiment: Biochemical inhibition of calpain 1, continuous fluorescence (FRET substrate) assay; details: mean, read-out: Human Calpain 1/NS1 IC50 (nM)_MEAN
T2 sequence (P07384 1-714): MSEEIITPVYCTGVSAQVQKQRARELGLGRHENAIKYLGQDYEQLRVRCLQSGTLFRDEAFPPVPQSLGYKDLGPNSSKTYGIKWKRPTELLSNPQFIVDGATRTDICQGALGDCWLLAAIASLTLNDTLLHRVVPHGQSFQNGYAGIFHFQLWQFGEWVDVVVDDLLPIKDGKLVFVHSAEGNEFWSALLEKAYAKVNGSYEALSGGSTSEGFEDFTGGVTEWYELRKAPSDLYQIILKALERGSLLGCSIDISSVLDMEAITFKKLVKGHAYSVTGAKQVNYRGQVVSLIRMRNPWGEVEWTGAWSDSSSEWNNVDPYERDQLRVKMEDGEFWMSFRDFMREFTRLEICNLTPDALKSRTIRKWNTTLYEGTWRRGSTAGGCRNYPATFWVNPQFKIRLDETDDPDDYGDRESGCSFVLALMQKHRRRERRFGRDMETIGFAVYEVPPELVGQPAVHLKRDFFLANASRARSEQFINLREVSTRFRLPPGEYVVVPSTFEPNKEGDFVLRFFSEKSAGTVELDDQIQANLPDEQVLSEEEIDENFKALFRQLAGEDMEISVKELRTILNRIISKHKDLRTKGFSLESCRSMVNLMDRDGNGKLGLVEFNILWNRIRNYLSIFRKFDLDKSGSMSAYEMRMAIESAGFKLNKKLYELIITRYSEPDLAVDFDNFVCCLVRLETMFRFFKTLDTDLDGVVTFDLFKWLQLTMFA
T2 sequence (P04632 1-268 partner): T1 sequence (P04632 1-268 partner)
In short: as §1

Human Calpain 9/NS1 = target: T3, Human Calpain 9/NS1 (Homo sapiens, UniProt O14815); experiment: Biochemical inhibition of calpain 9, continuous fluorescence (FRET substrate) assay; details: mean, read-out: Human Calpain 9/NS1 IC50 (nM)_MEAN
T3 sequence (O14815 1-690): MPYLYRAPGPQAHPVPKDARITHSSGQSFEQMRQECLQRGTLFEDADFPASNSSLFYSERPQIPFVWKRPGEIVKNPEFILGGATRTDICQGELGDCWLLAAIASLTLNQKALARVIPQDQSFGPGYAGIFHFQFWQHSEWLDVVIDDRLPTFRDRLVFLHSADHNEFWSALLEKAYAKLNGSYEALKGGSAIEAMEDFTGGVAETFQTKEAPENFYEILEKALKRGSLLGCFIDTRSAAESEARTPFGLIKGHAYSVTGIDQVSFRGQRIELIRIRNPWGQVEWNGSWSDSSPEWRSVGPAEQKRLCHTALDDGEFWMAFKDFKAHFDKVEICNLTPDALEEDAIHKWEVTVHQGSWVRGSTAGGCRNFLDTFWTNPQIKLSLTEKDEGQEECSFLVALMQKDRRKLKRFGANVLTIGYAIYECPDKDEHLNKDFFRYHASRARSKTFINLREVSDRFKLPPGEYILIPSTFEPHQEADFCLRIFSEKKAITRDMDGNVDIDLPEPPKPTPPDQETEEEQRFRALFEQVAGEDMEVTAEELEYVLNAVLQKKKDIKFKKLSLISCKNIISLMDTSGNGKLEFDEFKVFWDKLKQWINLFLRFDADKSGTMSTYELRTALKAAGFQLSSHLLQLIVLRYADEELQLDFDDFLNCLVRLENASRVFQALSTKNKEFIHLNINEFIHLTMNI
T3 sequence (P04632 1-268 partner): T1 sequence (P04632 1-268 partner)
In short: as §1

| Structure (SMILES) | IC50 (Human Calpain 2/NS1) | IC50 (Human Calpain 1/NS1) | IC50 (Human Calpain 9/NS1) |
| --- | --- | --- | --- |
| O=C(NCCN1CCOCC1)C(=O)C1CCCCOCCOCc2ccccc2C(=O)N1 (stereo not drawn) [Compound 80, N-(2-morpholinoethyl)-2-oxo-2-(12-oxo-1,3,4,6,7,8,9,10,11,12-decahydrobenzo[f][1,4]dioxa[9]azacyclotetradecin-10-yl)acetamide] | > 10000 nM | > 10000 nM | > 10000 nM |
| O=C(NCc1ccc2c(c1)OCO2)C(=O)C1CCCCOCCOCc2ccccc2C(=O)N1 (stereo not drawn) [Compound 81, N-(benzo[d][1,3]dioxol-5-ylmethyl)-2-oxo-2-(12-oxo-1,3,4,6,7,8,9,10,11,12-decahydrobenzo[f][1,4]dioxa[9]azacyclotetradecin-10-yl)acetamide] | 3000 to 10000 nM | > 10000 nM | < 3000 nM |
| O=C(NCCc1ccccn1)C(=O)C1CCCCOCCOCc2ccccc2C(=O)N1 (stereo not drawn) [Compound 82, 2-Oxo-2-(12-oxo-1,3,4,6,7,8,9,10,11,12-decahydrobenzo[f][1,4]dioxa[9]aza-cyclotetradecin-10-yl)-N-(2-(pyridin-2-yl)ethyl)acetamide] | > 10000 nM | > 10000 nM | 3000 to 10000 nM |
| O=C(NCc1ccc(Cl)c(Cl)c1)C(=O)C1CCCCOCCOCc2ccccc2C(=O)N1 (stereo not drawn) [Compound 83, N-(3,4-dichlorobenzyl)-2-oxo-2-(12-oxo-1,3,4,6,7,8,9,10,11,12-decahydrobenzo[f][1,4]dioxa[9]azacyclotetradecin-10-yl)acetamide] | 3000 to 10000 nM | > 10000 nM | < 3000 nM |
| NS(=O)(=O)c1ccc(CNC(=O)C(=O)C2CCCCOCCOCc3ccccc3C(=O)N2)cc1 (stereo not drawn) [Compound 84, 2-Oxo-2-(12-oxo-1,3,4,6,7,8,9,10,11,12-decahydrobenzo[f][1,4]dioxa[9]aza-cyclotetradecin-10-yl)-N-(4-sulfamoylbenzyl)acetamide] | 3000 to 10000 nM | > 10000 nM | < 3000 nM |
| C#CCNC(=O)C(=O)C1CCCCOCCOCc2ccccc2C(=O)N1 (stereo not drawn) [Compound 85, 2-Oxo-2-(12-oxo-1,3,4,6,7,8,9,10,11,12-decahydrobenzo[f][1,4]dioxa[9]aza-cyclotetradecin-10-yl)-N-(prop-2-yn-1-yl)acetamide] | > 10000 nM | > 10000 nM | 3000 to 10000 nM |
| Cc1cccc(Cl)c1CNC(=O)C(=O)C1CCCCOCCOCc2ccccc2C(=O)N1 (stereo not drawn) [Compound 86, N-(2-chloro-6-methylbenzyl)-2-oxo-2-(12-oxo-1,3,4,6,7,8,9,10,11,12-decahydrobenzo[f][1,4]dioxa[9]azacyclotetradecin-10-yl)acetamide] | > 10000 nM | > 10000 nM | > 10000 nM |
| O=C(NCc1ccc(OC(F)(F)F)cc1)C(=O)C1CCCCOCCOCc2ccccc2C(=O)N1 (stereo not drawn) [Compound 87, 2-Oxo-2-(12-oxo-1,3,4,6,7,8,9,10,11,12-decahydrobenzo[f][1,4]dioxa[9]aza-cyclotetradecin-10-yl)-N-(4-(trifluoromethoxy)benzyl)acetamide] | > 10000 nM | > 10000 nM | < 3000 nM |
| COc1cccc(CCNC(=O)C(=O)C2CCCCOCCOCc3ccccc3C(=O)N2)c1 (stereo not drawn) [Compound 88, N-(3-methoxyphenethyl)-2-oxo-2-(12-oxo-1,3,4,6,7,8,9,10,11,12-decahydrobenzo[f][1,4]dioxa[9]azacyclotetradecin-10-yl)acetamide] | > 10000 nM | > 10000 nM | < 3000 nM |
| O=C(NCCc1cccc(Cl)c1)C(=O)C1CCCCOCCOCc2ccccc2C(=O)N1 (stereo not drawn) [Compound 89, N-(3-chlorophenethyl)-2-oxo-2-(12-oxo-1,3,4,6,7,8,9,10,11,12-decahydrobenzo[f][1,4]dioxa[9]azacyclotetradecin-10-yl)acetamide] | > 10000 nM | > 10000 nM | < 3000 nM |
| CC(C)CCNC(=O)C(=O)C1CCCCOCCOCc2ccccc2C(=O)N1 (stereo not drawn) [Compound 90, N-isopentyl-2-oxo-2-(12-oxo-1,3,4,6,7,8,9,10,11,12-decahydrobenzo[f][1,4]dioxa[9]azacyclotetradecin-10-yl)acetamide] | 3000 to 10000 nM | > 10000 nM | < 3000 nM |
| CCCNC(=O)C(=O)C1CCCCOCCOCc2ccccc2C(=O)N1 (stereo not drawn) [Compound 91, 2-Oxo-2-(12-oxo-1,3,4,6,7,8,9,10,11,12-decahydrobenzo[f][1,4]dioxa[9]azacyclotetradecin-10-yl)-N-propylacetamide] | > 10000 nM | > 10000 nM | > 10000 nM |
| O=C(NCCCN1CCOCC1)C(=O)C1CCCCOCCOCc2ccccc2C(=O)N1 (stereo not drawn) [Compound 92, N-(3-morpholinopropyl)-2-oxo-2-(12-oxo-1,3,4,6,7,8,9,10,11,12-decahydrobenzo[f][1,4]dioxa[9]azacyclotetradecin-10-yl)acetamide] | > 10000 nM | > 10000 nM | 3000 to 10000 nM |
| CN(C)CCCNC(=O)C(=O)C1CCCCOCCOCc2ccccc2C(=O)N1 (stereo not drawn) [Compound 93, N-(3-(dimethylamino)propyl)-2-oxo-2-(12-oxo-1,3,4,6,7,8,9,10,11,12-decahydrobenzo[f][1,4]dioxa[9]azacyclotetradecin-10-yl)acetamide] | > 10000 nM | > 10000 nM | > 10000 nM |
| O=C(NCc1ccccn1)C(=O)C1CCCCOCCOCc2ccccc2C(=O)N1 (stereo not drawn) [Compound 94, 2-Oxo-2-(12-oxo-1,3,4,6,7,8,9,10,11,12-decahydrobenzo[f][1,4]dioxa[9]aza-cyclotetradecin-10-yl)-N-(pyridin-2-ylmethyl)acetamide] | > 10000 nM | > 10000 nM | < 3000 nM |
| O=C(NCc1ccccc1Cl)C(=O)C1CCCCOCCOCc2ccccc2C(=O)N1 (stereo not drawn) [Compound 95, N-(2-chlorobenzyl)-2-oxo-2-(12-oxo-1,3,4,6,7,8,9,10,11,12-decahydrobenzo[f][1,4]dioxa[9]azacyclotetradecin-10-yl)acetamide] | > 10000 nM | > 10000 nM | < 3000 nM |
| O=C(NCc1ccc(Cl)cc1Cl)C(=O)C1CCCCOCCOCc2ccccc2C(=O)N1 (stereo not drawn) [Compound 96, N-(2,4-dichlorobenzyl)-2-oxo-2-(12-oxo-1,3,4,6,7,8,9,10,11,12-decahydrobenzo[f][1,4]dioxa[9]azacyclotetradecin-10-yl)acetamide] | > 10000 nM | > 10000 nM | 3000 to 10000 nM |
